Experimental data published in ChEMBL document CHEMBL1201862, “PubChem BioAssay data set” (2004).
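Method: 48-hour compound exposure of cells in 96-well plates, five concentrations, linear interpolation of endpoints. At the GI50, growth is halved.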 Activity calls are given as the source filed them. Cut-off read from the data, not from the text of the source: active = GI50 up to about 1.1 µM and inactive = higher.

How the values were obtained:
Experiment in all cases: NCI tumour cell line growth inhibition, 48 h
DMS-273 = test system: DMS-273
HOP-18 = test system: HOP-18
XF498 = test system: XF498
M19-MEL = test system: M19-MEL
DMS-114 = test system: DMS-114
KM-20L2 = test system: KM-20L2
LXFL 529 = test system: LXFL 529
SNB-78 = test system: SNB-78
RXF 631 = test system: RXF 631

Measured: GI50

COc1ccccc1N1C(=O)C2c3[nH]c4ccccc4c3C3CCC(C(C)(C)C)CC3C2C1=O (centres undefined)
inactive: DMS-273 > 100 µM | HOP-18 > 100 µM | XF498 > 100 µM | M19-MEL > 100 µM | DMS-114 > 100 µM | KM-20L2 > 100 µM | LXFL 529 > 100 µM | SNB-78 > 100 µM

Cc1c(N)nc(C(CC(N)=O)NCC(N)C(N)=O)nc1C(=O)NC(C(=O)NC(C)C(O)C(C)C(=O)NC(C(=O)NCCc1nc(-c2nc(C(=O)NCCCNC(C)c3ccccc3)cs2)cs1)C(C)O)C(OC1OC(CO)C(O)C(O)C1OC1OC(CO)C(O)C(OC(N)=O)C1O)c1c[nH]cn1 (centres undefined)
active: DMS-273 0.0752 µM | XF498 0.973 µM | DMS-114 0.59 µM
inactive: HOP-18 21.3 µM | M19-MEL 15 µM | KM-20L2 40.4 µM | LXFL 529 23.9 µM | SNB-78 > 50 µM

O=C(c1ccccc1)c1c(C(=O)c2ccccc2)c(-c2ccccc2)c2c(-c3ccccc3)sc(-c3ccccc3)c2c1-c1ccccc1
inactive: DMS-273 > 100 µM | XF498 > 100 µM | M19-MEL > 100 µM | RXF 631 > 100 µM | DMS-114 > 100 µM | KM-20L2 > 100 µM | LXFL 529 > 100 µM | SNB-78 > 100 µM

O=C1NC(=O)/C(=N\c2cccc3c(=O)[nH][nH]c(=O)c23)C(c2nc3ccccc3s2)C1=O (centres undefined)
inactive: DMS-273 > 100 µM | HOP-18 > 100 µM | XF498 32.1 µM | M19-MEL > 100 µM | RXF 631 > 100 µM | DMS-114 > 100 µM | KM-20L2 > 100 µM | LXFL 529 > 100 µM | SNB-78 > 100 µM

CC1(C)OCN(c2ccc(Cl)cc2)Cn2c1nc1ccccc12
inactive: DMS-273 1.68 µM | HOP-18 > 100 µM | XF498 82.4 µM | M19-MEL 71 µM | DMS-114 21.2 µM | KM-20L2 1.82 µM | LXFL 529 1.31 µM | SNB-78 > 100 µM

O=C(CC(=O)N1N=C(n2ccc3ccccc32)CC1c1ccccc1)Nc1cccc(Cl)c1 (centres undefined)
inactive: DMS-273 > 100 µM | HOP-18 > 100 µM | M19-MEL > 100 µM | RXF 631 > 100 µM | KM-20L2 > 100 µM | LXFL 529 > 100 µM | SNB-78 > 100 µM

O=C1CC(C2(O)C(=O)Nc3ccc([N+](=O)[O-])cc32)c2ccccc21 (centres undefined)
inactive: DMS-273 20.9 µM | HOP-18 28.1 µM | M19-MEL 29.2 µM | RXF 631 16.4 µM | DMS-114 9.48 µM | LXFL 529 16.3 µM | SNB-78 31.6 µM

O=c1[nH]cc(COCCO)c(=O)[nH]1
inactive: DMS-273 > 100 µM | HOP-18 > 100 µM | XF498 > 100 µM | M19-MEL > 100 µM | RXF 631 > 100 µM | DMS-114 > 100 µM | KM-20L2 > 100 µM | LXFL 529 > 100 µM | SNB-78 > 100 µM

CC1=C(C(=O)Nc2ccccc2C)C(c2ccc(Cl)cc2)C(C(=O)Nc2ccccc2C)=C(C)N1
inactive: HOP-18 > 100 µM | XF498 81.3 µM | M19-MEL > 100 µM | RXF 631 > 100 µM | DMS-114 > 100 µM | LXFL 529 > 100 µM | SNB-78 > 100 µM

BrC(Br)([P+](c1ccccc1)(c1ccccc1)c1ccccc1)[P+](c1ccccc1)(c1ccccc1)c1ccccc1
inactive: DMS-273 14.6 µM | HOP-18 > 100 µM | M19-MEL 13.3 µM | DMS-114 13.4 µM | KM-20L2 24.9 µM | LXFL 529 15.2 µM | SNB-78 19.7 µM

Cc1c2ccncc2c(C)c2c1[nH]c1ccc(OCC(F)(F)F)cc12
inactive: XF498 1.61 µM | M19-MEL 1.84 µM | RXF 631 1.57 µM | DMS-114 1.84 µM | KM-20L2 1.47 µM | LXFL 529 1.2 µM | SNB-78 2.92 µM
active: DMS-273 0.82 µM

O=C1C=CC(=O)c2c(O)ccc(O)c21 [NAPHTHAZALIN]
active: M19-MEL 0.491 µM | LXFL 529 0.535 µM
inactive: DMS-273 3.17 µM | HOP-18 1.16 µM | XF498 1.58 µM | DMS-114 1.8 µM | KM-20L2 1.84 µM | SNB-78 2.25 µM
